Assay results published in patent US11415576B2, “Method for measurement of vitamin D” (Roche Diagnostics Operations, Inc., priority 2014, dated 2022).

Biological target: T1, ruthenylated Vitamin D-binding protein conjugate (Homo sapiens, UniProt P02774)
T1 sequence (P02774 17-474): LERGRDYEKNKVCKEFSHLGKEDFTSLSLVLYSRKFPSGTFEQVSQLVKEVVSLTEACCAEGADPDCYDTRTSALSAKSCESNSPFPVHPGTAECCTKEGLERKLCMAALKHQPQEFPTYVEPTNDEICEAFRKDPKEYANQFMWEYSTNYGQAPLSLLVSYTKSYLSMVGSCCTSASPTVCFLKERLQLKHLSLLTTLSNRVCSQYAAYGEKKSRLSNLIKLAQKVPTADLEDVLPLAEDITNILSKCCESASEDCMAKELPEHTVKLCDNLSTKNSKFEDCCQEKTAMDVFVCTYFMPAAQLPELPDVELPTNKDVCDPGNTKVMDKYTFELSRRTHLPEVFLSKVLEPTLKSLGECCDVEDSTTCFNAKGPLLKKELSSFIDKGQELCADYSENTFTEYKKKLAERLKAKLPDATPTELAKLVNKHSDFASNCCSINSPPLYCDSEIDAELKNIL
Test: Elecsys Vitamin D total immunoassay, dilution series in Diluent Universal, without or with blocking reagent

**Q.** Which B/B0 (24 nmoL/L, Reference, without blocking reagent) does the source give for `C=C1CC[C@H](O)C/C1=C/C=C1\CCC[C@@]2(C)C1CC[C@@H]2[C@H](C)CCC(O)C(C)(C)O` (stereo partly shown) [24,25(OH)2VitD3, 24,25-dihydroxyvitamin D3] here?
**A.** 67%

**Q.** What about the B/B0 (24 nmoL/L, with mAb<24,25(OH)2VitD3> 0.075 mg/mL in R1) of the same molecule?
**A.** 95%

**Q.** What about the B/B0 (48 nmoL/L, Reference, without blocking reagent) of the same molecule?
**A.** 53%

**Q.** What about the B/B0 (48 nmoL/L, with mAb<24,25(OH)2VitD3> 0.075 mg/mL in R1) of the same molecule?
**A.** 92%

**Q.** And the B/B0 (72 nmoL/L, Reference, without blocking reagent)?
**A.** 37%

**Q.** What about the B/B0 (72 nmoL/L, with mAb<24,25(OH)2VitD3> 0.075 mg/mL in R1) of the same molecule?
**A.** 91%

**Q.** What about the B/B0 (96 nmoL/L, Reference, without blocking reagent) of the same molecule?
**A.** 32%

**Q.** And the B/B0 (96 nmoL/L, with mAb<24,25(OH)2VitD3> 0.075 mg/mL in R1)?
**A.** 91%

**Q.** What about the B/B0 (120 nmoL/L, Reference, without blocking reagent) of the same molecule?
**A.** 26%

**Q.** What about the B/B0 (120 nmoL/L, with mAb<24,25(OH)2VitD3> 0.075 mg/mL in R1) of the same molecule?
**A.** 88%

**Q.** And the B/B0 (144 nmoL/L, Reference, without blocking reagent)?
**A.** 25%

**Q.** What about the B/B0 (144 nmoL/L, with mAb<24,25(OH)2VitD3> 0.075 mg/mL in R1) of the same molecule?
**A.** 88%

**Q.** What about the B/B0 (192 nmoL/L, Reference, without blocking reagent) of the same molecule?
**A.** 21%

**Q.** And the B/B0 (192 nmoL/L, with mAb<24,25(OH)2VitD3> 0.075 mg/mL in R1)?
**A.** 86%

**Q.** And the B/B0 (240 nmoL/L, Reference, without blocking reagent)?
**A.** 18%

**Q.** What about the B/B0 (240 nmoL/L, with mAb<24,25(OH)2VitD3> 0.075 mg/mL in R1) of the same molecule?
**A.** 82%

**Q.** And the B/B0 (288 nmoL/L, Reference, without blocking reagent)?
**A.** 15%

**Q.** And the B/B0 (288 nmoL/L, with mAb<24,25(OH)2VitD3> 0.075 mg/mL in R1)?
**A.** 76%

**Q.** And the B/B0 (360 nmoL/L, Reference, without blocking reagent)?
**A.** 13%

**Q.** And the B/B0 (360 nmoL/L, with mAb<24,25(OH)2VitD3> 0.075 mg/mL in R1)?
**A.** 74%

**Q.** And the B/B0 (480 nmoL/L, Reference, without blocking reagent)?
**A.** 11%

**Q.** And the B/B0 (480 nmoL/L, with mAb<24,25(OH)2VitD3> 0.075 mg/mL in R1)?
**A.** 66%

**Q.** What about the “cross-reactivity of the reference immunoassay” value (without blocking reagent) of the same molecule?
**A.** showed cross-reactivity

**Q.** `C=C1CC[C@H](O)C/C1=C/C=C1\CCC[C@]2(C)[C@@H]([C@H](C)CCCC(C)(C)O)CC[C@@H]12` [25(OH)VitD3, 25-hydroxyvitamin D3] was tested. Which B/B0 (25 nmoL/L, Reference, without blocking reagent) did it give?
**A.** 81%

**Q.** And the B/B0 (25 nmoL/L, with mAb<24,25(OH)2VitD3> 0.075 mg/mL in R1)?
**A.** 77%

**Q.** And the B/B0 (50 nmoL/L, Reference, without blocking reagent)?
**A.** 59%

**Q.** And the B/B0 (50 nmoL/L, with mAb<24,25(OH)2VitD3> 0.075 mg/mL in R1)?
**A.** 63%

**Q.** What about the B/B0 (75 nmoL/L, Reference, without blocking reagent) of the same molecule?
**A.** 44%

**Q.** What about the B/B0 (75 nmoL/L, with mAb<24,25(OH)2VitD3> 0.075 mg/mL in R1) of the same molecule?
**A.** 49%

**Q.** What about the B/B0 (100 nmoL/L, Reference, without blocking reagent) of the same molecule?
**A.** 37%

**Q.** And the B/B0 (100 nmoL/L, with mAb<24,25(OH)2VitD3> 0.075 mg/mL in R1)?
**A.** 42%

**Q.** What about the B/B0 (125 nmoL/L, Reference, without blocking reagent) of the same molecule?
**A.** 30%

**Q.** What about the B/B0 (125 nmoL/L, with mAb<24,25(OH)2VitD3> 0.075 mg/mL in R1) of the same molecule?
**A.** 33%

**Q.** And the B/B0 (150 nmoL/L, Reference, without blocking reagent)?
**A.** 27%

**Q.** What about the B/B0 (150 nmoL/L, with mAb<24,25(OH)2VitD3> 0.075 mg/mL in R1) of the same molecule?
**A.** 30%

**Q.** And the B/B0 (200 nmoL/L, Reference, without blocking reagent)?
**A.** 22%

**Q.** What about the B/B0 (200 nmoL/L, with mAb<24,25(OH)2VitD3> 0.075 mg/mL in R1) of the same molecule?
**A.** 23%

**Q.** And the B/B0 (250 nmoL/L, Reference, without blocking reagent)?
**A.** 18%

**Q.** What about the B/B0 (250 nmoL/L, with mAb<24,25(OH)2VitD3> 0.075 mg/mL in R1) of the same molecule?
**A.** 18%

**Q.** And the B/B0 (300 nmoL/L, Reference, without blocking reagent)?
**A.** 16%

**Q.** What about the B/B0 (300 nmoL/L, with mAb<24,25(OH)2VitD3> 0.075 mg/mL in R1) of the same molecule?
**A.** 15%

**Q.** And the B/B0 (374 nmoL/L, Reference, without blocking reagent)?
**A.** 14%

**Q.** What about the B/B0 (374 nmoL/L, with mAb<24,25(OH)2VitD3> 0.075 mg/mL in R1) of the same molecule?
**A.** 13%

**Q.** And the B/B0 (499 nmoL/L, Reference, without blocking reagent)?
**A.** 11%

**Q.** What about the B/B0 (499 nmoL/L, with mAb<24,25(OH)2VitD3> 0.075 mg/mL in R1) of the same molecule?
**A.** 10%

**Q.** What about the “cross-reactivity of the reference immunoassay” value (without blocking reagent) of the same molecule?
**A.** showed cross-reactivity
